In patent publication US20240228465A1, “SUBSTITUTED PYRIDINE N-OXIDE DERIVATIVES USEFUL AS A FACTOR XIA INHIBITORS” (Janssen Pharmaceutica NV, priority 2021, published 2024):
Like-named read-outs stand apart in the source and are kept apart here.

Assays:
[1] = target: Factor XIa (Homo sapiens, UniProt P03951); assay: Factor XIa inhibition assay utilizing a fluorophore-quencher pair peptide substrate (FLINT); type: biochemical; conditions: kinetic reads at 5 min intervals over 30 min; 30 min preincubation; read-out: FXIa (KIN) IC50
Chain of Factor XIa (P03951 388-625 limits assumed): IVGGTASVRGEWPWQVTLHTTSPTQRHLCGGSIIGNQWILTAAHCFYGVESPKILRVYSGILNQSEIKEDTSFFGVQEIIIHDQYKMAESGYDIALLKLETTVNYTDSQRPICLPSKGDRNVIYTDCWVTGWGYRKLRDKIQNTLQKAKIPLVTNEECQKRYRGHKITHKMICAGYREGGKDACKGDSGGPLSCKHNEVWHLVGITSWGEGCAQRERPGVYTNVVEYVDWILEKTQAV
Chain of Factor XIa (P03951 19-387 partner limits assumed): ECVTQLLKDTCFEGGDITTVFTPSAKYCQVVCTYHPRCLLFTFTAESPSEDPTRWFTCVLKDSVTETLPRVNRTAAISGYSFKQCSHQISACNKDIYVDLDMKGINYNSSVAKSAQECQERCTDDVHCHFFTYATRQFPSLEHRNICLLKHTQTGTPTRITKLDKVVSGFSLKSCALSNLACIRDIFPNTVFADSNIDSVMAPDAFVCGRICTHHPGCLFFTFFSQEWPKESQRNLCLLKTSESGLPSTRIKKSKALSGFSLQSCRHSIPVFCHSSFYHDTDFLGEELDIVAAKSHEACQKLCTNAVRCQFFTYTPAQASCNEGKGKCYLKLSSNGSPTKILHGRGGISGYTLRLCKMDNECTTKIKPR
Text: Biological Example 1: Factor XIa Inhibition Assay Utilizing a Fluorophore-Quencher Pair Peptide Substrate
A fluorescence intensity (FLINT) based assay was used to monitor inhibition of Factor XIa. The peptide substrate, 5Fam-KLTRAETV-K5Tamra (purchased from New England Peptide) was chosen based on the […]. Conversion of zymogen […]. The custom peptide used in this assay was based on the Arg146 cleavage site of FXI. The peptide substrate was designed with a fluorophore-quencher pair, where the fluorescence is quenched until FXIa cleaves the 8-mer peptide after the Arg residue. The substrate KM was fit to a substrate inhibition model whereby kcat=0.86 s^−1, KM=12.4 μM, Ki=61.6 μM with an enzymatic efficiency, and kcat/KM=69523 M^−1s^−1.
The Factor XIa FLINT assay was used with the following 5Fam-KLTRAETV-K5Tamra assay buffer: 50 mM Tris, pH 7.5, 100 mM NaCl, 5 mM CaCl2, 0.1 mg/mL BSA, 0.03% CHAPS. Assay buffer was prepared by mixing all ingredients fresh. 5Fam-KLTRAETV-K5Tamra peptide substrate was first prepared at 10 mM in 100% DMSO, then diluted to 3 mM in 100% DMSO. Assay buffer was then added directly to the 3 mM stock of substrate to prepare the 30 μM 2× working concentration (15 μM final concentration). The 2× Factor XIa stock solution was prepared by diluting 6.562 μM stock in 1× assay buffer for a […].
Test compound(s) were run in an 11-point, 3-fold serial dilution with a final top compound concentration of 100 nM. Final DMSO in assay was 2%. FXIa was preincubated with compound for 30-minutes and then substrate was added to initiate the reaction. The assay was run with either end point (EP) reads at 30 min or kinetic (KIN) reads at 5 min intervals over 30 minutes. The time course was linear using 100 μM FXIa greater than 30 minutes. More specifically, the assay was run as follows: • 100 nL of 0.01 mM test compound was dispensed into black 384-well non-binding Greiner BioOne 784900 plate for 0.1 μM final concentration; • 5 μL of 1× assay buffer was dispensed to column 24 (low control) and 5 μL 2× Factor XIa solution was dispensed to columns 1-23 (column 23 high control); • the plate was centrifuged with a “cover” plate at 500 rpm for 1 min • the plate was pre-incubated for 30 minutes at room temperature with plate covered; • 5 μL of 2× 5Fam-KLTRAETV-K5Tamra peptide substrate was dispensed into the entire plate, columns 1-24; • the plate was centrifuged with a “cover” plate at 500 rpm for 1 min; • the plate was read monitoring fluorescence intensity on the BMG PHERAStar at room temperature, using fluorescence module 485 nm/520 nm.
(§1) Percent inhibition (IC50) curves were generated per compound tested, and data was analyzed using a 4-parameter logistic fit using GeneData Screener. The relative fluorescence unit (RFU) values were normalized to percent inhibition using the following equation:
[formula] • where LC—low control=mean signal of no Factor XIa or 100% inhibition of Factor XIa; HC—high control=mean signal of Factor XIa+5Fam-KLTRAETV-K5Tamra peptide substrate with DMSO only.
(§2) An 11-point dose response curve for the test compound(s) was generated using GENDATA to determine IC50 value based on the following equation:
(§3) [formula] • where Y is the % inhibition in the presence of X inhibitor concentration, Top=high control=mean signal of Factor XIa+5Fam-KLTRAETV-K5Tamra peptide substrate with DMSO only; Bottom=low control—mean signal of no Factor XIa or 100% inhibition of Factor XIa; HillSlope—Hill coefficient; and IC50=concentration of compound with 50% inhibition in relation to top/high control.
Representative compounds of formula (I) of the present invention were tested according to the procedure described in Biological Example 1 and Biological Example 2 above, with results as listed in Table 3, below. […]

[2] = target: human plasma kallikrein (Homo sapiens, UniProt P03952); assay: Kallikrein inhibition assay utilizing a quenched AMC peptide substrate (FLINT); type: biochemical; conditions: read-out: Kallikrein (KIN) IC50
Chain of human plasma kallikrein (P03952 391-638 limits assumed): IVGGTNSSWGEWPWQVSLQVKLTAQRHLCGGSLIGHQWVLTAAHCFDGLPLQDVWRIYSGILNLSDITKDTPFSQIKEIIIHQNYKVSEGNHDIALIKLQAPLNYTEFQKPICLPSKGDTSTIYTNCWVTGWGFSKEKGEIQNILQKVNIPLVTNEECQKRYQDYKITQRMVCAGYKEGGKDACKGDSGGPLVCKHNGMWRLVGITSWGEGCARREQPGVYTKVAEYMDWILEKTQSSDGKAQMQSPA
Chain of human plasma kallikrein (P03952 20-390 partner limits assumed): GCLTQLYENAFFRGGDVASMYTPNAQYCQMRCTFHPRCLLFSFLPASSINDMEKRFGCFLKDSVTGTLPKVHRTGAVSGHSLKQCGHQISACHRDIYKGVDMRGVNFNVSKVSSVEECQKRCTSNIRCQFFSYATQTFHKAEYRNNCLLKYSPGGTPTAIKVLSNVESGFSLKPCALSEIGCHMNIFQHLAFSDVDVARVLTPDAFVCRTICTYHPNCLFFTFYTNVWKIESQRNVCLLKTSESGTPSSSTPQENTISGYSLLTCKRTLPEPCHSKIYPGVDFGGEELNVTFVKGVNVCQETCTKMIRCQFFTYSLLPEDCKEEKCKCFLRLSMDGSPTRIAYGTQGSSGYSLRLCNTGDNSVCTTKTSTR
Method: Biological Example 2: Kallikrein Inhibition Assay Utilizing a Quenched AMC Peptide Substrate
A fluorescence intensity (FLINT) based assay was used to monitor inhibition of human plasma kallikrein. The peptide substrate, Z-Gly-Pro-Arg-AMC (Purchased from Bachem; Catalog #I-1150) was chosen based on its relatively low KM for kallikrein which enables running the assay at lower substrate concentrations to control background fluorescence. The kinetic parameters for this substrate were determined by fitting titration data to the Michaelis-Menten equation yielding a KM=40 μm, kcat=0.76 s^−1, and kcat/KM=18932 M^−1s^−1.
The Kallikrein FLINT assay was used with the following Z-Gly-Pro-Arg-AMC assay buffer: 50 mM Tris, pH 7.5, 100 mM NaCl, 5 mM CaCl2, 0.1 mg/mL BSA, 0.03% CHAPS. Assay buffer was prepared by mixing all ingredients fresh. 2× Z-Gly-Pro-Arg-AMC peptide substrate was prepared by diluting 10 mM stock into 1× assay buffer for a 100 μM working concentration (50 μM final concentration). The 2× kallikrein stock solution was prepared by diluting 14.76 μM stock in 1× assay buffer for a 4 nM working stock solution (2 nM final concentration).
Test compound(s) were run in an 11-point, 3-fold serial dilution with a final top compound concentration of 1 μM. Final DMSO in assay was 2%. Plasma kallikrein was pre-incubated for 30-minute with compound and then 50 μM substrate was added to initiate the reaction. The assay was run with either end point (EP) reads at 30 min or kinetic (KIN) reads at 5 min intervals over 30 minutes. The time course was linear using 2 nM kallikrein greater than 30 minutes. More specifically, the assay was run as follows: • 100 nL of 0.1 mM test compound was dispensed into black 384-well non-binding Greiner BioOne 784900 plate for 1 μM final concentration; • 5 μL of 1× assay buffer was dispensed to columns 24 (low control) and 5 μL 2× human kallikrein enzyme solution was dispensed to columns 1-23 (column 23 high control); • the plate was centrifuged with a “cover” plate at 500 rpm for 1 min • the plate was pre-incubated for 30 minutes at room temperature with plate covered; • 5 μL of 2× Z-Gly-Pro-Arg-AMC peptide substrate was dispensed into the entire plate, columns 1-24; • the plate was centrifuged with a “cover” plate at 500 rpm for 1 min; • the plate was read monitoring fluorescence intensity on the BMG PHERAStar at room temperature, using fluorescence module 340 nm/440 nm.
as §1
% inhibition=((HC−LC)−(compound−LC)/(HC−LC))*100 • where LC—low control=mean signal of human kallikrein enzyme or 100% inhibition of human kallikrein enzyme; HC—high control=mean signal of Factor XIa+Z-Gly-Pro-Arg-AMC peptide substrate with DMSO only.
as §2
as §3, with “Y=Bottom+(Top−Bottom)/(1+10^((log IC50−X)*HillSlope))” for “[formula]”, “human kallikrein enzyme+Z-Gly-Pro-Arg-AMC” for “Factor XIa+5Fam-KLTRAETV-K5Tamra”, “human kallikrein enzyme” for “Factor XIa”, “human kallikrein enzyme;” for “Factor XIa;”
Representative compounds of formula (I) of the present invention were tested according to the procedure described in Biological Example 1 and Biological Example 2 above, with results as listed in Table 3, below. Results listed in the (ER) column were measured using endpoint reads where a single fluorescence reading was measured for each well at a 30 min timepoint. […]

[3] = kinetic reads at 5 min intervals over 30 min, 30 min preincubation

| SMILES | IC50 [1] | IC50 [2, 3] | IC50 ([2]; kinetic reads, unit μM) |
| --- | --- | --- | --- |
| [2H]C([2H])([2H])n1nccc1-c1cn(C(CCOC(F)F)c2ccc(-c3c(-n4cc(C(F)(F)F)nn4)ccc(Cl)c3F)c[n+]2[O-])cn1 (single isomer, unassigned) [M16, (S*)-5-(3-Chloro-2-fluoro-6-(4-(trifluoromethyl)-1H-1,2,3-triazol-1-yl)phenyl)-2-(3-(difluoromethoxy)-1-(4-(1-(methyl-d3)-1H-pyrazol-5-yl)-1H-imidazol-1-yl)propyl)pyridine 1-oxide] | 0.5 nM | 0.0317 µM | – |
| Cn1nncc1-c1cn([C@H](CCOC(F)F)c2ccc(-c3c(-n4cc(Cl)nn4)ccc(Cl)c3F)c[n+]2[O-])cn1 [M12, (R)-5-(3-Chloro-6-(4-chloro-1H-1,2,3-triazol-1-yl)-2-fluorophenyl)-2-(3-(difluoromethoxy)-1-(4-(1-methyl-1H-1,2,3-triazol-5-yl)-1H-imidazol-1-yl)propyl)pyridine 1-oxide] | 0.3 nM | 0.0159 µM | – |
| COC(=O)Nc1ccc(-c2cn(C(CC3CC3)c3ccc(-c4c(-n5cnnn5)ccc(Cl)c4F)c[n+]3[O-])cn2)cc1 (stereo not shown) [M3, 5-(3-Chloro-2-fluoro-6-(1H-tetrazol-1-yl)phenyl)-2-(2-cyclopropyl-1-(4-(4-((methoxycarbonyl)amino)phenyl)-1H-imidazol-1-yl)ethyl)pyridine 1-oxide] | 8.5 nM | 0.169 µM | – |
| Cn1ncnc1-c1cn(C(CCOC(F)F)c2ccc(-c3c(-n4cc(C(F)(F)F)nn4)ccc(Cl)c3F)c[n+]2[O-])cn1 (stereo not shown) [M9, 5-(3-Chloro-2-fluoro-6-(4-(trifluoromethyl)-1H-1,2,3-triazol-1-yl)phenyl)-2-(3-(difluoromethoxy)-1-(4-(1-methyl-1H-1,2,4-triazol-5-yl)-1H-imidazol-1-yl)propyl)pyridine 1-oxide] | 4.3 nM | 0.543 µM | – |
| CCC(c1ccc(-c2c(-n3cnnn3)ccc(Cl)c2F)c[n+]1[O-])n1cnc(-c2ccc(NC(=O)OC)cc2)c1 (racemic) [M4, 5-(3-Chloro-2-fluoro-6-(1H-tetrazol-1-yl)phenyl)-2-(1-(4-(4-((methoxycarbonyl)amino)phenyl)-1H-imidazol-1-yl)propyl)pyridine 1-oxide] | 12.1 nM | 0.202 µM | – |
| [2H]C([2H])([2H])n1nccc1-c1cn(C(CCOC(F)F)c2ccc(-c3c(-n4cc(C(F)(F)F)nn4)ccc(Cl)c3F)c[n+]2[O-])cn1 (single isomer, unassigned) [M15, (R*)-5-(3-Chloro-2-fluoro-6-(4-(trifluoromethyl)-1H-1,2,3-triazol-1-yl)phenyl)-2-(3-(difluoromethoxy)-1-(4-(1-(methyl-d3)-1H-pyrazol-5-yl)-1H-imidazol-1-yl)propyl)pyridine 1-oxide] | > 100 nM | – | > 1 µM |
| [O-][n+]1cc(-c2c(-n3cnnn3)ccc(Cl)c2F)ccc1C(Cc1ccc(F)cc1)n1cnc(-c2ccncc2)c1 (stereo not shown) [M5, 5-(3-Chloro-2-fluoro-6-(1H-tetrazol-1-yl)phenyl)-2-(2-(4-fluorophenyl)-1-(4-(pyridin-4-yl)-1H-imidazol-1-yl)ethyl)pyridine 1-oxide] | 0.7 nM | 0.0017 µM | – |

More lines, now with the values ahead:

| IC50 [1] | IC50 [2, 3] | IC50 ([2]; kinetic reads, unit μM) | SMILES |
| --- | --- | --- | --- |
| > 100 nM | – | > 1 µM | [O-][n+]1cc(-c2c(-n3cc(C(F)(F)F)nn3)ccc(Cl)c2F)ccc1[C@H](CCOC(F)F)n1cc(-c2cnnn2C(F)F)nn1 [T9, (S)-5-(3-Chloro-2-fluoro-6-(4-(trifluoromethyl)-1H-1,2,3-triazol-1-yl)phenyl)-2-(3-(difluoromethoxy)-1-(3′-(difluoromethyl)-1H,3′H-[4,4′-bi(1,2,3-triazol)]-1-yl)propyl)pyridine 1-oxide] |
| ~2.3 nM | ~0.334 µM | – | Cn1ncnc1-c1cn(C(CCOC(F)F)c2ccc(-c3c(-n4cc(C(F)(F)F)nn4)ccc(Cl)c3F)c[n+]2[O-])nn1 (stereo not shown) [T7, 5-(3-Chloro-2-fluoro-6-(4-(trifluoromethyl)-1H-1,2,3-triazol-1-yl)phenyl)-2-(3-(difluoromethoxy)-1-(4-(1-methyl-1H-1,2,4-triazol-5-yl)-1H-1,2,3-triazol-1-yl)propyl)pyridine 1-oxide] |
| 308 nM | – | > 10 µM | Cn1nncc1-c1cn([C@@H](CC2CC2)c2ccc(-c3c(-n4cnnn4)ccc(Cl)c3F)c[n+]2[O-])nn1 [T5, (S)-5-(3-Chloro-2-fluoro-6-(1H-tetrazol-1-yl)phenyl)-2-(2-cyclopropyl-1-(3′-methyl-1H,3′H-[4,4′-bi(1,2,3-triazol)]-1-yl)ethyl)pyridine 1-oxide] |
| 1 nM | 0.0149 µM | – | COC(=O)Nc1ccc(-c2cn(C(CC3CC3)c3ccc(-c4c(-n5cnnn5)ccc(Cl)c4F)c[n+]3[O-])nn2)cc1 (single isomer, unassigned) [T4, (S*)-5-(3-Chloro-2-fluoro-6-(1H-tetrazol-1-yl)phenyl)-2-(2-cyclopropyl-1-(4-(4-((methoxycarbonyl)amino)phenyl)-1H-1,2,3-triazol-1-yl)ethyl)pyridine 1-oxide] |
